These results are taken from US8735387B2, “Oxazolopyrimidines as Edg-1 receptor agonists” (Sanofi, priority 2008, dated 2014).

The target in the first experiment is T1, human Edg-1 receptor (Homo sapiens, UniProt P21453).
T1 construct: expressed in transfected cells; membrane preparation
T1 sequence (P21453 whole entry): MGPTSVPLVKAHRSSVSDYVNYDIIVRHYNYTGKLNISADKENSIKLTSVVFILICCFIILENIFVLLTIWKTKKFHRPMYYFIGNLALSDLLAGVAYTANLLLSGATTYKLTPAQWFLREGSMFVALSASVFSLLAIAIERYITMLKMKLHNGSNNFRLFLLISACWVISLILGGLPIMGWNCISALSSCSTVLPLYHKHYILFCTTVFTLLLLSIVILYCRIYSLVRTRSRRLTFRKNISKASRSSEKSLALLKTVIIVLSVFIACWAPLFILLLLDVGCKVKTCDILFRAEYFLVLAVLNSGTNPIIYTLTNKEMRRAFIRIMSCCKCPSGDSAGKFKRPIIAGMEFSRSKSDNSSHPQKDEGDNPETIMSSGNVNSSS
Briefly: GTP-γ-S assay using human Edg-1 receptors (scintillation proximity assay, membrane preparation from CHO Flp-In cell line). It counts as biochemical. The settings on record: example compound at 10 μM; relative to 10 μM S1P; GTP-γ-S SPA, human Edg-1 membranes. From the text:
Determination of the Pharmacological Activity A) GTP-γ-S Assay Using Human Edg-1 Receptors
In order to determine the Edg-1 receptor activation by the compounds of the invention, a GTP-γ-S (guanosine 5′-[γ-thio]triphosphate) assay for G-protein coupled receptor binding based on the scintillation proximity assay principle was used, employing a cell membrane preparation from a CHO Flp-In cell line which constitutively overexpresses the human Edg-1 receptor.
The Flp-In™ expression system (Invitrogen, cat. no. K6010-01) allows the generation of stable mammalian cell lines into which the gene of interest has been integrated through homologous recombination at a specific genomic location called Flp Recombination Target (FRT) site by means of a Flp recombinase encoded by the pOG44 expression plasmid. The integration of the pcDNA5/FRT expression construct into the Flp-In host cell line genome results in the transcription of the gene of interest. The stably transfected cells become hygromycin-resistant.
One day prior to transfection, 200 000 Flp-In-CHO cells were seeded in Ham F-12 medium (Invitrogen, cat. no. 31765) supplemented with 10% fetal calf serum (FCS; Perbio Science, cat. no. SH30068.03) in a 6-well plate and incubated at 37° C./5% CO2 overnight. Using the FuGENE® 6 transfection reagent (Roche, cat. no. 11988387001), cells were cotransfected with the Flp recombinase expression plasmid pOG44 and a modified plasmid additionally containing the edg-1 gene (accession no. NM_001400) termed as pcDNA5-FRT-TO_nFLAG_DEST-EDG-1 with a 9:1 ratio. To obtain the modified pcDNA5-FRT-TO_nFLAG_DEST plasmid, the Invitrogen plasmid pcDNA5/FRT/TO (Invitrogen, cat. no. V6520-20) was adapted to the Gateway® (Invitrogen) cloning system by inserting a Gateway cassette containing attR recombination sites flanking a ccdB gene and a chloramphenicol-resistance gene (Gateway conversion system, Invitrogen, cat. no. 11828-029). In addition a FLAG tag epitope was added before the 5′ att recombination site to allow recombinant expression of N-terminally FLAG-tagged proteins.
For the transfection of one well, 1.08 μg of pOG44 and 0.12 μg of pcDNA5-FRT-TO_nFLAG_DEST-EDG-1 were mixed to 100 μl of serum-free Ham F-12 medium containing 6 μl of FuGENE® 6 transfection reagent. After 20 min of incubation, the transfection reagent/DNA complex was distributed dropwise on the cells. The cells were incubated for 24 h at 37° C. Then the cells from 3 wells each were transferred to a T75 flask (Greiner Cellstar®, cat. no. 658175) containing Ham F-12 medium supplemented with 10% of FCS but without antibiotic and were incubated another 24 h. 48 h after transfection, the medium was replaced by selection medium (Ham F-12 supplemented with 10% of FCS and 300 μg/ml of hygromycin B (Invitrogen, cat. no. 10687-010)). The medium was exchanged every 2 to 3 days until a resistant population of cells had grown. […] After 2 weeks of selection, the cells were transferred into T175 flasks (Greiner Cellstar®, cat. no. 660175) and cultivated for batch production. Cells were harvested from the culture flasks by short treatment (2 to 5 min) with Accutase (PAA, cat. no. L11-007), resuspended in selection medium (see above) and centrifuged at 200×g for 5 min. Cells were resuspended in a mixture of 90% of FCS and 10% of dimethylsulfoxide and stored frozen in liquid nitrogen.
A membrane preparation was obtained by standard methods from the afore-described CHO Flp-In cell line constitutively overexpressing the human Edg-1 receptor. Briefly, the cryopreserved cells were taken in culture and grown until confluency in T175 cell culture flasks (Becton Dickinson, cat. no. 35 5001). […]
For orientation: Scintillation proximity formats need no separation of bound from free tracer.
Take `CCOc1nc(Cc2ccc(Cl)cc2)nc2oc(-c3cccc(OCC(=O)N[C@@H](C)C(=O)O)c3)nc12` [Example 268]: the “% Activation (Edg-1 receptor activation in percent of the activation by 10 μM S1P)” value was 100%.

In the case of `CCCOc1nc(CN2CCN(S(C)(=O)=O)CC2)nc2oc(-c3cccc(F)c3)nc12` [Example 55], the “% Activation (Edg-1 receptor activation in percent of the activation by 10 μM S1P)” value is reported as 22%.

Consider `CCOc1nc(Cc2ccc(Cl)cc2)nc2oc(-c3cc(C)c(OCC(=O)NCCC(=O)OC(C)(C)C)c(C)c3)nc12` [Example 255], for which the “% Activation (Edg-1 receptor activation in percent of the activation by 10 μM S1P)” value was found to be 74%.

For `CCOc1nc(Cc2ccc(Cl)cc2)nc2oc(-c3cc(C)c(OCC(=O)NCCC(=O)O)c(C)c3)nc12` [Example 314], the “% Activation (Edg-1 receptor activation in percent of the activation by 10 μM S1P)” value is reported as 96%.

`CCCOc1nc(Cc2ccc(Cl)cc2)nc2oc(-c3ccncc3F)nc12` [Example 150]: the “% Activation (Edg-1 receptor activation in percent of the activation by 10 μM S1P)” value was determined as 143%.

Regarding `CCCOc1nc(Cc2ccc(Cl)cc2)nc2oc(-c3cc(C)c(OCC(=O)N4CCC[C@H]4C(=O)OC(C)(C)C)c(C)c3)nc12` [Example 307], the “% Activation (Edg-1 receptor activation in percent of the activation by 10 μM S1P)” value worked out at 10%.

Turning to `CCCOc1nc(CN2CCCCC2)nc2oc(-c3cccc(F)c3)nc12` [Example 182], the “% Activation (Edg-1 receptor activation in percent of the activation by 10 μM S1P)” value was determined as 108%.

In the case of `C=C(C)COc1nc(Cc2ccc(Cl)cc2)nc2oc(-c3cccnc3)nc12` [Example 124], the “% Activation (Edg-1 receptor activation in percent of the activation by 10 μM S1P)” value came out at 94%.

On to `CCCOc1nc(Cc2ccc(Cl)cc2)nc2oc(-c3cc(C)c(OCC(O)CNC(=O)C4(O)CC4)c(C)c3)nc12` (stereo not shown) [Example 308], for which the “% Activation (Edg-1 receptor activation in percent of the activation by 10 μM S1P)” value worked out at 107%.

Take `CCOc1nc(Cc2ccc(Cl)cc2)nc2oc(-c3cc(C)c(OCC(O)CN4CCOCC4)c(C)c3)nc12` (stereo not shown) [Example 236]: the “% Activation (Edg-1 receptor activation in percent of the activation by 10 μM S1P)” value came out at 102%.

Consider `CCCOc1nc(Cc2ccc(Cl)cc2)nc2oc(-c3cc(OC)ncc3Cl)nc12` [Example 177], for which the “% Activation (Edg-1 receptor activation in percent of the activation by 10 μM S1P)” value came out at 106%.

Regarding `CCCOc1nc(CN2CCOC[C@@H]2C)nc2oc(-c3cccc(F)c3)nc12` [Example 184], the “% Activation (Edg-1 receptor activation in percent of the activation by 10 μM S1P)” value worked out at 88%.

As for `CCCOc1nc(CN2CCOCC2)nc2oc(-c3cc(Cl)ccc3OC)nc12` [Example 75], the “% Activation (Edg-1 receptor activation in percent of the activation by 10 μM S1P)” value turned out to be 72%.

In the case of `CCCOc1nc(CN2CCCOCC2)nc2oc(-c3cc(Cl)ccc3OC)nc12` [Example 74], the “% Activation (Edg-1 receptor activation in percent of the activation by 10 μM S1P)” value came to 114%.

For `CCOc1nc(Cc2ccc(Cl)cc2)nc2oc(-c3cccc(OCC(=O)N4CCC[C@@H]4C(=O)O)c3)nc12` [Example 269], the “% Activation (Edg-1 receptor activation in percent of the activation by 10 μM S1P)” value was 69%.

Regarding `CCOc1nc(Cc2ccc(Cl)cc2)nc2oc(-c3cc(C)c(OCC(O)CS(=O)(=O)c4nnc(C5CC5)[nH]4)c(C)c3)nc12` (stereo not shown) [Example 300], the “% Activation (Edg-1 receptor activation in percent of the activation by 10 μM S1P)” value was determined as 89%.

As to `CCOc1nc(Cc2ccc(Cl)cc2)nc2oc(-c3cc(C)c(OCC(O)CNC(=O)C4(O)CC4)c(C)c3)nc12` (stereo not shown) [Example 260], the “% Activation (Edg-1 receptor activation in percent of the activation by 10 μM S1P)” value is on record as 95%.

As to `CCOc1nc(Cc2ccc(Cl)cc2)nc2oc(-c3cc(C)c(OCC(O)CNCC(c4cccnc4)N(C)C)c(C)c3)nc12` (stereo not shown) [Example 221], the “% Activation (Edg-1 receptor activation in percent of the activation by 10 μM S1P)” value is 84%.

`CCCOc1nc(Cc2ccc(Cl)cc2)nc2oc(-c3cccc(C)c3F)nc12` [Example 171]: the “% Activation (Edg-1 receptor activation in percent of the activation by 10 μM S1P)” value is listed as 115%.

Regarding `CCCOc1nc(Cc2ccc(Cl)cc2)nc2oc(-c3cncc(C)c3)nc12` [Example 153], the “% Activation (Edg-1 receptor activation in percent of the activation by 10 μM S1P)” value is 84%.

As for `CCCOc1nc(Cc2ccc(Cl)cc2)nc2oc(-c3cc(C)ccc3F)nc12` [Example 167], the “% Activation (Edg-1 receptor activation in percent of the activation by 10 μM S1P)” value was found to be 102%.

As for `CCOc1nc(Cc2ccc(Cl)cc2)nc2oc(-c3cc(C)c(OCC(O)CS(=O)(=O)c4ncn[nH]4)c(C)c3)nc12` (stereo not shown) [Example 291], the “% Activation (Edg-1 receptor activation in percent of the activation by 10 μM S1P)” value is recorded as 116%.

For `CCOc1nc(Cc2ccc(Cl)cc2)nc2oc(-c3cc(C)c(OCCCS(=O)(=O)c4nnc(C(C)(C)C)[nH]4)c(C)c3)nc12` [Example 278], the “% Activation (Edg-1 receptor activation in percent of the activation by 10 μM S1P)” value is listed as 105%.

For the compound `Clc1ccc(Cc2nc(OC3CCCC3)c3nc(-c4cccs4)oc3n2)cc1` [Example 114], the “% Activation (Edg-1 receptor activation in percent of the activation by 10 μM S1P)” value worked out at 83%.

Consider `CCOc1nc(Cc2ccc(Cl)cc2)nc2oc(-c3cc(C)c(OCC(=O)NCCN4CCOCC4)c(C)c3)nc12` [Example 234], for which the “% Activation (Edg-1 receptor activation in percent of the activation by 10 μM S1P)” value is listed as 106%.

With `CCOc1nc(Cc2ccc(Cl)cc2)nc2oc(-c3cccc(OCC(=O)NCCC(=O)O)c3)nc12` [Example 298], the “% Activation (Edg-1 receptor activation in percent of the activation by 10 μM S1P)” value was found to be 92%.

For the compound `CCCOc1nc(CN2CCOCC2)nc2oc(-c3ccc(F)c(F)c3)nc12` [Example 66], the “% Activation (Edg-1 receptor activation in percent of the activation by 10 μM S1P)” value is reported as 107%.

On to `CCCOc1nc(CN2CCCC2)nc2oc(-c3cccc(F)c3)nc12` [Example 183], for which the “% Activation (Edg-1 receptor activation in percent of the activation by 10 μM S1P)” value came out at 85%.

As for `CCCOc1nc(Cc2ccc(Cl)cc2)nc2oc(-c3cc(C)c(OCC(=O)NCc4ccco4)c(C)c3)nc12` [Example 252], the “% Activation (Edg-1 receptor activation in percent of the activation by 10 μM S1P)” value is 102%.

For `CCCOc1nc(Cc2ccc(Cl)cc2)nc2oc(-c3ccc(N4CCOCC4)nc3)nc12` [Example 148], the “% Activation (Edg-1 receptor activation in percent of the activation by 10 μM S1P)” value amounted to 41%.

Consider `CCCOc1nc(Cc2ccc(Cl)cc2)nc2oc(-c3ccc(C(C)=O)s3)nc12` [Example 175], for which the “% Activation (Edg-1 receptor activation in percent of the activation by 10 μM S1P)” value is recorded as 116%.

On to `CCCOc1nc(Cc2ccc(Cl)cc2)nc2oc(-c3cc(C)c(OCC(O)CNC4CCN(C)CC4)c(C)c3)nc12` (stereo not shown) [Example 313], for which the “% Activation (Edg-1 receptor activation in percent of the activation by 10 μM S1P)” value worked out at 143%.

Consider `CCCOc1nc(CN2CCS(=O)(=O)CC2)nc2oc(-c3cccc(F)c3)nc12` [Example 45], for which the “% Activation (Edg-1 receptor activation in percent of the activation by 10 μM S1P)” value was 69%.

As to `CCCOc1nc(CN2CCOCC2)nc2oc(-c3ccc(Cl)c(F)c3)nc12` [Example 89], the “% Activation (Edg-1 receptor activation in percent of the activation by 10 μM S1P)” value is 107%.

As to `CCOc1nc(Cc2ccc(Cl)cc2)nc2oc(-c3cc(C)c(OCC(O)CN)c(C)c3)nc12` (stereo not shown) [Example 263], the “% Activation (Edg-1 receptor activation in percent of the activation by 10 μM S1P)” value is on record as 138%.

With `CCCOc1nc(CN2CCOCC2)nc2oc(-c3cccc(C(F)(F)F)c3)nc12` [Example 72], the “% Activation (Edg-1 receptor activation in percent of the activation by 10 μM S1P)” value was found to be 99%.

Take `CCOc1nc(Cc2ccc(Cl)cc2)nc2oc(-c3cc(C)c(OCC(O)CN(CC)CC)c(C)c3)nc12` (stereo not shown) [Example 238]: the “% Activation (Edg-1 receptor activation in percent of the activation by 10 μM S1P)” value is reported as 71%.

The experiment is the same for the next values; noted with them: example compound at 10 μM; relative to 10 μM S1P; GTP-γ-S SPA, human Edg-1 membranes; read-out: % Activation (Edg-1 receptor activation in percent of the activation by 10 μM S1P).
Take `CCCOc1nc(Cc2ccc(Cl)cc2)nc2oc(-c3cc(C)c(OC)c(C)c3)nc12` [Example 168, 5-(4-chloro-benzyl)-2-(4-methoxy-3,5-dimethyl-phenyl)-7-propoxy-oxazolo[5,4-d]pyrimidine]: the activation at 10 µM turned out to be 117%.

For the compound `CCCOc1nc(CN2CCOCC2)nc2oc(-c3cc(F)ccc3Cl)nc12` [Example 1, 2-(2-Chloro-5-fluoro-phenyl)-5-morpholin-4-ylmethyl-7-propoxy-oxazolo[5,4-d]pyrimidine], the activation at 10 µM stood at 117%.

On to `CCCOc1nc(Cc2ccc(Cl)cc2)nc2oc(-c3cccc(N)c3)nc12` [Example 21, 3-[5-(4-Chloro-benzyl)-7-propoxy-oxazolo[5,4-d]pyrimidin-2-yl]-phenylamine], for which the activation at 10 µM was 71%.
